Where two headings read alike, the source gives them in different places.
Key:
HCV [1] = settings: phase 2 study, 1500 mg BID for 14 days; cited from earlier work
HCV [2] = settings: chimpanzee, 7 days, cited from earlier work
Replicon = settings: cited from earlier work
[3] = target: T1, Hepatitis C virus NS5B polymerase (Hepatitis C virus genotype 1b, UniProt Q9WMX2); settings: compound tested as its triphosphate; read-out: NS5b IC50 of NTP; cited from earlier work
T1 construct: Hepatitis C virus NS5B polymerase is an RNA-dependent RNA polymerase (RdRp)

[4] = rat, in vivo, po, 50 mg/kg
[5] = rat, in vivo, po, 50 mg/kg; cited from earlier work

T1 sequence (Q9WMX2 2420-3010): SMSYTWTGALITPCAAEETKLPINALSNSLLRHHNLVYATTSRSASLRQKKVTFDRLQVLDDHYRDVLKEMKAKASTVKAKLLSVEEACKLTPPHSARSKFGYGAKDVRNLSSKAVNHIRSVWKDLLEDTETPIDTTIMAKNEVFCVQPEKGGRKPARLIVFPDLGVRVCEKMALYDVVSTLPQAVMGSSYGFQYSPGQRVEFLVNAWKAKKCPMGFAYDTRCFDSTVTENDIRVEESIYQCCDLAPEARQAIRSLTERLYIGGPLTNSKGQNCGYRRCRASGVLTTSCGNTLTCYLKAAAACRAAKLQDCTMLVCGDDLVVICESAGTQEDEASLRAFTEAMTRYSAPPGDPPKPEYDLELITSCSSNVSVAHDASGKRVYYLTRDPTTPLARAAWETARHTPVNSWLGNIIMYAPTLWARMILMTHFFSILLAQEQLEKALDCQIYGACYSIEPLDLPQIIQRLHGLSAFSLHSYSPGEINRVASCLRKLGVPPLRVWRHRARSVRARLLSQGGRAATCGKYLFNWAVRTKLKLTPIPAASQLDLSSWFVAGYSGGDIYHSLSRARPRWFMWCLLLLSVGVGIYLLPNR

In the case of `CC(C)C(=O)OC[C@@]1(N=[N+]=[N-])O[C@@H](n2ccc(N)nc2=O)[C@H](OC(=O)C(C)C)[C@@H]1OC(=O)C(C)C` [Compound 81626], the “mean reduction in serum viral titre” value (HCV [1]) is listed as 1.2 log10.

For `C[C@@]1(O)[C@H](O)[C@@H](CO)O[C@H]1n1ccc2c(N)ncnc21` [MK-0608], the “reduction in viral titre” value (HCV [2]; intravenous 2 mg/kg/day) is given as over 5 log10.

For `CC(C)[C@H](N)C(=O)O[C@@H]1[C@@H](CO)O[C@@H](n2ccc(N)nc2=O)[C@]1(C)O` [NM283], the “reduction in viral titre” value (HCV [2]; 16.6 mg/kg/day) is listed as 1.15 log10.

In the case of `C[C@@]1(F)[C@H](O)[C@@H](CO)O[C@H]1n1ccc(N)nc1=O` [PSI-6130, β-D-2′-deoxy-2′-fluoro-2′-C-methylcytidine], the EC50 (Replicon) is given as 600 nM, the “activity in the replicon assay” value (Replicon) is given as “potent” and the IC50 [3] is given as 130 nM.

In the case of `COC(=O)[C@H](C)NP(=O)(OC[C@H]1O[C@@H](n2ccc(=O)[nH]c2=O)[C@](C)(F)[C@@H]1O)Oc1ccccc1` (stereo partly drawn) [PSI-7672], the EC50 (Replicon) is given as 1600 nM.

In the case of `CC(C)OC(=O)[C@H](C)NP(=O)(OC[C@H]1O[C@@H](n2ccc(=O)[nH]c2=O)[C@](C)(F)[C@@H]1O)Oc1ccccc1` (stereo partly drawn) [PSI-7851], the “liver triphosphate level converted to molar units” value [4] is given as 5.1 nmol/g and the liver triphosphate levels [5] is given as 2550 ng/g.

For `C[C@@]1(F)[C@H](O)[C@@H](CO)O[C@H]1n1ccc(=O)[nH]c1=O` [RO2433, 2′-deoxy-2′-fluoro-2′-C-methyl-uridine], the EC50 (Replicon) is listed as over 100000 nM, the “activity in the replicon assay” value (Replicon) is listed as “inactive” and the IC50 [3] is listed as 520 nM.

From patent US20100305060A1, “Nucleoside Prodrugs and Uses Thereof” (Ligand Pharmaceuticals Incorporated, priority 2007, published 2010)
